The test system of assay [1] is BV2 microglia. Kind of assay: Membrane-associated GFP-LC3 by flow cytometry. In kind it is cell-based, murine. The settings on record: parental BV2 microglia, latrunculin A versus vehicle. How it is done:
(§1) In an attempt to delineate the discrepancies in β-amyloid accumulation in the animal models presented above and the role of the autophagy proteins in this process, BV2 murine microglial cells expressing GFP-LC3 that are deficient in FIP200, ATG5, or Rubicon were engineered using CRISPR/Cas9 (FIG. 3A). Cells were cultured in the presence of neurotoxic oligomeric AP 1-42 labeled with TAMRA.
To quantify membrane association of GFP-LC3, cells were harvested and permeabilized using 200 μg/ml digitonin for 15 min on ice. Cytosolic GFP-LC3 was removed by washing cells 5× in cold PBS. Cells were then resuspended in 0.5% BSA in PBS for analysis by flow cytometry as described above.
(§2) To delineate between phagocytosis and endocytosis, cells were treated as indicated with the phagocytic inhibitor latrunculin A. Cells were pre-treated for 1 h prior to the addition of target substrates. The following control substrates were used, zymosan (phagocytosis) and dextran (endocytosis), both were fluorescently labeled as indicated. Co-incubation with specific substrates was carried out at 37° C. for 3h. Cells were either fixed for imaging or analyzed by flow cytometry as described above respectively.
On the technique in general: In flow cytometry, cells or beads pass a laser one at a time.

For assay [2], the system named is BV2 microglia. Kind of assay: Phagocytosis versus endocytosis substrate uptake with latrunculin A (flow cytometry, imaging). The assay is classed as cell-based, murine. The settings on record: 50 μM latrunculin A. The method, then: as §1
For all uptake assays, cells were analyzed without fixation. For membrane-associated GFP-LC3 analysis, cells were processed as described below. For brain infiltrating monocytes, cells were isolated as described using the Neural Tissue Dissociation Kit (Miltenyi). Primary cells were fixed, permeabilized, and stained using the Cyto Fix/Perm Staining Kit (BD Bioscience) and the indicated, conjugated primary antibodies. For all experiments, cells were analyzed using a Sony SP6800 Spectral Analyzer (Sony). All analyses were performed using FlowJo v10.4 (Tree Star). Fluorescent compensation was performed using BD compensation beads (BD Bioscience).
as §2

The test system of assay [3] is Atg16L^ΔWD mice. Kind of assay: Novel object recognition (NOR) after MCC950 treatment. In kind it is in vivo, mouse. The settings on record: MCC950 8 weeks, trending towards wild-type littermates. How it is done:
Novel object recognition (NOR) was performed in an open-field box (40 cm×40 cm). Mice were allowed to acclimate to the testing room for 48h. For habituation, mice were allowed to explore the open-field for 15 min per day for two days. Mice were then exposed to two identical objects for 10 min on the day of testing. 2h later a novel object was introduced, and mice were allowed to explore for 5 min during the test phase. The time spent exploring each object was quantified manually. Novel object preference (%) and the discrimination index ((time with novel)/(novel+familiar)*100) were calculated for each mouse.
(§3) Mice with established disease were treated for 8-weeks with either a vehicle (placebo) control or MCC950 (Invivogen) as reported previously (Gordon et al. 2018 Science Translational Medicine 10(465)). In brief, MCC950 was suspended in 100% DMSO and titrated to a working dose using sterile water. The final concentration of DMSO in the injection was <1%. Matching solution without MCC950 was used as the vehicle (placebo). Mice were injected every 3 days for 8-weeks at a dose of 10 mg/kg via intraperitoneal injection.

In assay [4] the test system is Atg16L^ΔWD mice. Kind of assay: Y-maze spontaneous alternation after MCC950 treatment. The assay is classed as in vivo, mouse. The conditions noted are these: MCC950 8 weeks, trending towards wild-type littermates. The method, then: For Y-maze spontaneous alternation analysis, mice were housed in the testing room and allowed to acclimate for 48h. The Y-maze test consisted of a single 5 min trial per mouse. Spontaneous Alternation [%] was defined as consecutive entries in 3 different arms (ABC), divided by the number of possible alternations (total arm entries minus 2). Mice with less than 5 arm entries during the 5 min trial were excluded from the analysis.
as §3

Assay [5] has as its system Atg16L^ΔWD mice. Kind of assay: Brain pathology by immunofluorescence/TUNEL after 8 weeks of MCC950 in mice with established disease. The settings on record: MCC950 10 mg/kg i.p. every 3 days for 8 weeks. The assay is classed as in vivo, mouse. How it is done: Inflammasome inhibition has recently been proposed as putative therapeutic approach that reduces neuroinflammation and Tau phosphorylation (PMID: 31748742). Thus, Atg16L WD-domain deficient mice (Atg16L^ΔWD mice) with established disease (starting at 20 months of age) and behavioral impairment, as measured by both impaired spontaneous alternation and NOR (FIGS. 19A-19B), were treated with the brain-penetrant inflammasome inhibitor MCC950. […] However, no difference in Aβ deposition was observed between placebo and MCC950-treated mice (FIG. 19E).
Atg16^ΔWD mice were generated by deletion of the WD-domain of Atg16L, as previously described (Rai et al 2018(online) Autophagy 15(4)599-612). In brief, 2 stop codons were inserted into exon 6 of murine Atg16L1 immediately after glutamate E230 to preserve binding sites for WIPI2 (required for canonical autophagy) but prevent translation of the linker and WD-domain. Mice were produced and maintained on a mixed 129, C57BL/6 background. Unless otherwise noted, all experiments were performed on mixed sex cohorts at 2 years of age. Mice treated with MCC950 or placebo were mixed sex cohorts, 20 months of age at time of treatment onset and were treated for 8-weeks. The genetic backgrounds of mice used were assessed at the DartMouse™ Speed Congenic Core Facility at the Geisel School of Medicine at Dartmouth. DartMouse uses the Illumina, Inc. (San Diego, Calif.) Infinium Genotyping Assay to interrogate a custom panel of 5307 SNPs spread throughout the genome. The raw SNP data was analyzed using DartMouse's SNaP-Map™ and Map-Synth™ software, allowing the determination for each mouse of the genetic background at each SNP location. Background strain percentage was subsequently compared against markers of disease pathology to evaluate any influence stemming from variations in background (FIG. 18).
For preparation of brain tissue see “Preparation of brain samples” below. Slides were subjected to antigen retrieval using 1% sodium citrate boiling for 20 min followed by 3× PBS washing. Slides were blocked in 0.5% BSA in PBS. Antibody staining was carried out as described above. Following final washing, slides were mounted using ProLong Diamond Anti-Fade mounting media with DAPI.
Image analysis for relative Aβ, Iba1, and phospho-Tau staining was achieved by quantifying the mean fluorescent intensity (MFI) of either Iba1 or phospho-Tau signal using NIS-elements. Analysis and quantification of microglial morphology was achieved using Slidebook 6 software. Morphological state was determined by measuring cell diameter following 3D reconstruction and confirmed by manual counting/analysis of microglia shape per defined field across multiple areas of each slide. […]

Assay [6] concerns BV2 murine microglial cells expressing GFP-LC3. Kind of assay: LC3 recruitment/co-localization to β-amyloid in GFP-LC3 BV2 cells (imaging). The assay is classed as cell-based. The settings on record: parental BV2 GFP-LC3 cells, TAMRA-labeled oligomeric peptide. The method, then: as §1
(§4) Both labeled and unlabeled Ab1-42 was purchased in lyophilized form and resuspended according to the manufacturer's recommendation at a concentration of 100 μM (Anaspec). In brief, Ab1-42 was resuspended to 5 mM in DMSO and then adjusted to 100 μM using DMEM/F12 culture media. Oligomerization was allowed to occur for 24h at 4° C. prior to addition to cells at 1 μM unless otherwise indicated.
For all non-live cell-based imaging, cells were cultured in 4-well chamber slides (Ibidi) and were fixed and stained as indicated. In brief, cells were fixed with 4% PFA for 10 min followed by permeabilization using 200 μg/ml digitonin for 10 min. Cells were blocked in 0.5% BSA in PBS for 30 min prior to staining with primary antibodies overnight at 4° C. Cells were then washed 3× in PBS and then stained with the indicated fluorescent secondary antibodies for 30 min. Cells were subsequently washed 3× with PBS and post-fixed in 1% PFA for 10 min prior to imaging. […]

In a further assay the test system is BV2 cells. Kind of assay: Pro-inflammatory gene expression by qPCR after oligomeric Aβ1-42. In kind it is cell-based, murine. The conditions noted are these: BV2 cells treated with Aβ1-42. The method, then: Similarly, the effects of Aβ1-42 on microglia were examined. As expected, BV2 cells treated with Aβ1-42 had elevated pro-inflammatory gene expression, including IL-1β, IL-6, CCL5, and TNFα as reported (Pan et al. (2011) Mol Neurodegener 6:45) and consistent with human disease.
as §4
Total RNA was isolated from cells or tissue using the RNeasy Kit (Qiagen) according to the manufacturer's instructions. First-strand synthesis was performed using M-MLV reverse transcriptase (Invitrogen). Realtime PCR was performed using SYBR GREEN PCR master mix (Applied Biosystems) in an Applied Biosystems 7900HT thermocycler using SyBr Green detection protocol as outlined by the manufacturer using the following PCR conditions: 50° C. for 2 min, 95° C. for 10 min, and 40 cycles of 95° C. for 15s and 60° C. for 1 min. mRNA was normalized to actin allowing for comparison of mRNA levels. Please see key reagents table for qPCR primer sequences.
(In general: Real-time PCR tracks product formation cycle by cycle.)

For `C/C1=C/C(=O)O[C@@H]2C[C@@H](CC[C@H](C)/C=C\C=C\CC1)O[C@@](O)([C@@H]1CSC(=O)N1)C2` [latrunculin A], the “association of LC3 to endosomal membranes in response to β-amyloid” value in the assay on BV2 microglia [1] is reported as “did not alter”. In addition, the “uptake of the endocytic substrate dextran” value with BV2 microglia [2] (dextran 500 ng/ml) is on record as “had no effect”. In addition, the “internalization of the phagocytic substrate zymosan” value with BV2 microglia [2] (zymosan 4:1 particle:cell) is recorded as “prevented the internalization”. The “uptake of β-amyloid” value in the assay on BV2 microglia [2] (β-amyloid 1 μM) is on record as “had no effect”.
As to `CC(C)(O)c1coc(S(=O)(=O)NC(=O)Nc2c3c(cc4c2CCC4)CCC3)c1` [MCC950], in the assay on Atg16L^ΔWD mice [3], the “behavioral and memory capacity in NOR (novel object preference, discrimination index)” value was “restoration”. Further, the “behavioral and memory capacity in the Y-maze (spontaneous alternation)” value in the assay on Atg16L^ΔWD mice [4] is recorded as “restoration”. The “microglial activation (Iba1 staining, hippocampus)” value with Atg16L^ΔWD mice [5] (20 months at onset, compared to placebo) is “reduced”. In the assay on Atg16L^ΔWD mice [5] (versus placebo), the “Aβ deposition (hippocampus)” value is given as “no difference”; the “Tau phosphorylation (S199/202, CA3-field)” value is “massive reduction”; the “neurodegeneration as measured by TUNEL staining (CA3-field)” value is given as “massive reduction”.
Take “Aβ1-42: neurotoxic oligomeric β-amyloid 1-42 peptide, labeled or unlabeled (Anaspec)”: the “co-localization/recruitment of LC3 to the β-amyloid” value in assay [6] is listed as “induced rapid co-localization”. For the same molecule, in the assay on BV2 cells, the “pro-inflammatory gene expression, including IL-1β, IL-6, CCL5, and TNFα” value is given as “elevated”.

(Values after US20220104468A1, “MODULATION OF LC3-ASSOCIATED ENDOCYTOSIS PATHWAY AND GENETICALLY MODIFIED NON-HUMAN ANIMALS AS A MODEL OF NEUROINFLAMMATION AND NEURODEGENERATION” (St. Jude Children's Research Hospital, priority 2019, published 2022).)
